# Measured values reported in patent US20150328220A1, “METHODS OF TREATING CHRONIC KIDNEY DISEASE CHARACTERIZED BY MACROALBUMINURIA” (Concert Pharmaceuticals, Inc., priority 2014, published 2015).
# Key:
# Type in all cases: in vivo, human
# [1] = test system: patients with type 2 diabetic kidney disease and macroalbuminuria; experiment: Phase 2 placebo-controlled clinical trial, 48 weeks: serum creatinine levels; details: for patients who experienced a 50% or greater increase in serum creatinine levels: after 48 weeks
# Protocol: (§1) A Phase 2 placebo-controlled clinical trial of Compound (V) was conducted in patients with type 2 diabetic kidney disease and macroalbuminuria. All patients enrolled in the clinical trial were concurrently treated with angiotensin modulators. The purpose of the trial was to compare Compound (V) to placebo in terms of safety and efficacy with respect to measures of renal function such as UACR, serum creatinine levels, and estimated glomerular filtration rate.
# (§2) The clinical trial consists of three parts, two of which were completed and a third part that is on-going. Part 1 was a double-blind, parallel, two-arm, placebo-controlled study evaluating the safety and efficacy of 600 mg of Compound (V) twice daily for 24 weeks. 182 patients were enrolled in this first part of the trial and 151 patients completed Part 1. Part 2 was a blinded 24-week extension study in which all patients who completed Part 1 were eligible to continue receiving 600 mg of Compound (V) or placebo twice daily. 143 patients were enrolled in this part of the clinical trial and have completed dosing. 123 of the 143 patients that were enrolled in Part 2 of the clinical trial completed Part 2. The combined 48 weeks of data from Parts 1 and 2 of the clinical trial have been analyzed. 102 patients enrolled in Part 3 which is a 48 week open-label extension study that is on-going. All patients who completed Part 2 were eligible to receive 600 mg of Compound (V) twice daily.
# The key criteria for patients to be included in the clinical trial were (a) eGFR from 23 to 89 mL/min/1.73 m^2, a measure of kidney function which indicates mild to moderately severe type 2 diabetic kidney disease; (b) having been on a stable angiotensin modulation regimen for a minimum of four weeks prior to initiating screening and nine weeks prior to initiating dosing; (c) blood pressure less than or equal to 145/90 mm Hg; (d) glycosylated hemoglobin A1c (HbA1c) less than or equal to 10.5%, and (e) UACR greater than or equal to 200 mg/g in male patients and 300 mg/g in female patients, ratios of albumin to creatinine that are indicative of substantial kidney damage in men and women, but not more than 5,000 mg/g, a ratio indicative of severe kidney disease.
# urinary fibronectin = experiment: Phase 2 placebo-controlled clinical trial, 48 weeks: urinary fibronectin (fibrotic biomarker)
# Protocol: as §1
# as §2, with “All patients who completed Part 2 were eligible to receive 600 mg of Compound (V) twice daily.” left out
# plasma collagen IV = experiment: Phase 2 placebo-controlled clinical trial, 48 weeks: plasma collagen IV (fibrotic biomarker); details: week 48 (FIG. 3)
# Protocol: as §1
# as §2, with “All patients who completed Part 2 were eligible to receive 600 mg of Compound (V) twice daily.” left out
structure (smiles),measurement,setting,value
[2H]C([2H])([2H])[C@H](O)C([2H])([2H])CCCn1c(=O)c2c(ncn2C)n(C)c1=O [Compound (V)],increase in mean serum creatinine level over the 48 weeks of treatment,"[1]; 600 mg twice daily, 48 weeks, 65 patients, overall population, preliminary analysis",0.13 mg/dL
same,patients who experienced a 50% or greater increase in serum creatinine levels,"[1]; overall population, one out of 65 patients, p=0.026 vs placebo, post-hoc",1.5%
same,patients who experienced a 50% or greater increase in serum creatinine levels,"[1]; subpopulation having UACR greater than 850 mg/g, one out of 31 patients, p<0.0409 vs placebo",3.1%
same,improvement in serum creatinine increase as compared to placebo,"[1]; at 48 weeks, 600 mg twice daily, p=0.057 two-tailed",38%
same,less urine fibronectin versus placebo,"urinary fibronectin; week 48, overall population (FIG. 1)",59%
same,decrease in urine fibronectin relative to placebo,"urinary fibronectin; week 48, subpopulation having UACR greater than 850 mg/g, p<0.01 (FIG. 2)",73%
same,less plasma collagen IV versus placebo,plasma collagen IV,18%
